Assay results from US11878970B2, “Allosteric chromenone inhibitors of phosphoinositide 3-kinase (PI3K) for the treatment of disease” (Petra Pharma Corporation, priority 2021, dated 2024).

Key:
[1] = target: T1, PI3K-α (PIK3CA) wild-type (WT), p110α/p85α complex (Homo sapiens, UniProt P42336); test: PI3K-alpha kinase (PIK3CA) biochemical activity, ADP-Glo, wild-type; settings: Soy PI lipid substrate
T1 construct: Recombinant, catalytically active human full length PIK3KA Wild-type and H1047R mutant; 6×His (N); purchased EMD Millipore Sigma 14-602M
Outline: (§1)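 ADP formation measured by ADP-Glo luminescence after reaction at 27 °C to about 10% ATP turnover, using 20 uM ATP, 50 uM PIP2diC8 or soy PI lipid, HEPES pH 7.4 with MgCl2. Enzyme (1-5 nM WT or H1047R p110α/p85α) and compound preincubated 1 h first; 10-point 1:3 curves fitted four-parameter for IC50.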

[2] = target: T2, PI3K-α (PIK3CA) H1047R mutant, p110α/p85α complex (Homo sapiens, UniProt P42336, H1047R); test: PI3K-alpha kinase (PIK3CA) biochemical activity, ADP-Glo, H1047R mutant; settings: Soy PI lipid substrate
T2 construct: Recombinant, catalytically active human full length PIK3KA Wild-type and H1047R mutant; 6×His (N); purchased EMD Millipore Sigma 14-792M
Outline: as §1

T2 sequence (P42336 whole entry H1047R): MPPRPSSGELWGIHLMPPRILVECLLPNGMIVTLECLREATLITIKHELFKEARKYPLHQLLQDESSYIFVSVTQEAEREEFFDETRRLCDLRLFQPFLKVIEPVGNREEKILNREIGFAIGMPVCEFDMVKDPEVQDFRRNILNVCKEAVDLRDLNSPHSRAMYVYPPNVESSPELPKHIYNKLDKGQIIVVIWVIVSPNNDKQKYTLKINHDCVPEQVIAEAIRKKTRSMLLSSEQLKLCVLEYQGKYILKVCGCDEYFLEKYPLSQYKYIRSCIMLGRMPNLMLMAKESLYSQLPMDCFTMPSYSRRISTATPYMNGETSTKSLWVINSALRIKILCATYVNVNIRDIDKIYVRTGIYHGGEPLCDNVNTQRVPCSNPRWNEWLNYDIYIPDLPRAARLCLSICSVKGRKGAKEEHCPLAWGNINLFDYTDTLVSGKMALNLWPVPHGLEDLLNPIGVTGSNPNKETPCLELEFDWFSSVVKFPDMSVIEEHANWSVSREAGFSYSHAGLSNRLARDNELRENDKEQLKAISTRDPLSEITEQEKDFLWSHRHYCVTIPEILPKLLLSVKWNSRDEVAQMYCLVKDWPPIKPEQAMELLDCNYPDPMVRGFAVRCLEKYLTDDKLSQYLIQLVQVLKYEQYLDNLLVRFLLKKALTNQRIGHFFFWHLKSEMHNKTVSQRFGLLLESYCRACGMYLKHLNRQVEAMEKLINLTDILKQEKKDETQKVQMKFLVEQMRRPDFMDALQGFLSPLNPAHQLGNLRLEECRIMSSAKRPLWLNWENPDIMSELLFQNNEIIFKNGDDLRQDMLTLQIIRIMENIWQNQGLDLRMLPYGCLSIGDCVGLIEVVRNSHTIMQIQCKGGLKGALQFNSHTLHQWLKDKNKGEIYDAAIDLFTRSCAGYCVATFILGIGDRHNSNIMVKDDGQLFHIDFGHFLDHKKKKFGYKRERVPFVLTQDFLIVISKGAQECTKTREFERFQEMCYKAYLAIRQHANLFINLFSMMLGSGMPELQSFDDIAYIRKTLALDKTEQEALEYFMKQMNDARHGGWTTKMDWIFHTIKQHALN
T2 sequence (P27986 whole entry partner): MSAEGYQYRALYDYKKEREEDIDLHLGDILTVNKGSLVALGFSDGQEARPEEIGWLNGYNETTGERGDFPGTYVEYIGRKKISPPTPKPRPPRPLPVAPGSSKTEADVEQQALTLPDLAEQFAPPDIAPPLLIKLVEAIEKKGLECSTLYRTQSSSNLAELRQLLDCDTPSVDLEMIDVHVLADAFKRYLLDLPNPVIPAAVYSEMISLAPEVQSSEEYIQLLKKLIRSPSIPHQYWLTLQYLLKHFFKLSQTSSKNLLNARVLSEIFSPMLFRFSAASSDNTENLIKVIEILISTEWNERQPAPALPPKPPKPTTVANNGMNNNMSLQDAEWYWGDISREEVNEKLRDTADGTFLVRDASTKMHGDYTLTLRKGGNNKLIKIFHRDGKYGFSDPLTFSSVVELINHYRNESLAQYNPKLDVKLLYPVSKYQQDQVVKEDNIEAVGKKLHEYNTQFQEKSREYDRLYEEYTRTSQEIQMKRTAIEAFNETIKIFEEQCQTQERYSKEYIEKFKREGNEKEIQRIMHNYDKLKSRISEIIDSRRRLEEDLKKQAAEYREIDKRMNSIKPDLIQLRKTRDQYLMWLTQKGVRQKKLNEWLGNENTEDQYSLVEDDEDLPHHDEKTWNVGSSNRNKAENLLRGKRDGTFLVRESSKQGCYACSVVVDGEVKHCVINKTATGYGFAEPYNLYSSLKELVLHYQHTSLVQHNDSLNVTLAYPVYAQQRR

Row | SMILES | IC50 [1] | IC50 [2]
1 | Cc1cc(C(C)Nc2ccccc2C(=O)O)c2oc(-c3ccc4nnc(C(F)(F)F)n4c3)cc(=O)c2c1 (single isomer, unassigned) [Example 162, 2-[1-[6-Methyl-4-oxo-2-[3-(trifluoromethyl)-[1,2,4]triazolo[4,3-a]pyridin-6-yl]chromen-8-yl]ethylamino]benzoic acid] | > 10000 nM | 500 to 1000 nM
2 | Cc1cn2nc(-c3cc(=O)c4cc(C(F)(F)F)cc(C(C)Nc5ccc(Cl)nc5C(=O)O)c4o3)ccc2n1 (single isomer, unassigned) [Example 102, 6-Chloro-3-[1-[2-(2-methylimidazo[1,2-b]pyridazin-6-yl)-4-oxo-6-(trifluoromethyl)chromen-8-yl]ethylamino]pyridine-2-carboxylic acid] | 1000 to 5000 nM | < 500 nM
3 | Cc1ccc2c(cnn2-c2cc(=O)c3cc(C)cc(C(C)Nc4ccccc4C(=O)O)c3o2)c1 (single isomer, unassigned) [Example 87, 2-[1-[6-Methyl-2-(5-methylindazol-1-yl)-4-oxo-chromen-8-yl]ethylamino]benzoic acid] | 1000 to 5000 nM | < 500 nM
4 | Cc1c(-c2ccc3nn(C)cc3c2)oc2c(C(C)Nc3ccccc3C(=O)O)cc(F)cc2c1=O (single isomer, unassigned) [Example 57, 2-[1-[6-Fluoro-3-methyl-2-(2-methylindazol-5-yl)-4-oxo-chromen-8-yl]ethylamino]benzoic acid] | 1000 to 5000 nM | 1000 to 5000 nM
5 | Cc1cc(C(C)Nc2ccccc2C(=O)O)c2oc(-c3ccc4c(c3)CN(C)C4=O)cc(=O)c2c1 (stereo not drawn) [Example 30, 2-[1-[6-Methyl-2-(2-methyl-1-oxo-isoindolin-5-yl)-4-oxo-chromen-8-yl]ethylamino]benzoic acid] | 1000 to 5000 nM | < 500 nM
6 | Cc1cc(C(C)Nc2ccccc2C(=O)O)c2oc(-c3ccn4c(C)nnc4c3)cc(=O)c2c1 (single isomer, unassigned) [Example 77, 2-[1-[6-Methyl-2-(3-methyl-[1,2,4]triazolo[4,3-a]pyridin-7-yl)-4-oxo-chromen-8-yl]ethylamino]benzoic acid] | 5000 to 10000 nM | < 500 nM
7 | Cc1cc(C(C)Nc2ccccc2C(=O)O)c2oc(-n3cc4ccccc4n3)cc(=O)c2c1 (single isomer, unassigned) [Example 50, 2-[1-(2-Indazol-2-yl-6-methyl-4-oxo-chromen-8-yl)ethylamino]benzoic acid] | 1000 to 5000 nM | < 500 nM
8 | CC(Nc1ccc(Cl)nc1C(=O)O)c1cc(C(F)(F)F)cc2c(=O)cc(-c3cc(Cl)c4nn(C)cc4c3)oc12 (stereo not drawn) [Example 173, 6-Chloro-3-[1-[2-(7-chloro-2-methyl-indazol-5-yl)-4-oxo-6-(trifluoromethyl)chromen-8-yl]ethylamino]pyridine-2-carboxylic acid] | > 10000 nM | < 500 nM
9 | Cc1cc(C(C)Nc2ccccc2C(=O)O)c2oc(-c3ccc4cc(C)nn4c3)cc(=O)c2c1 (single isomer, unassigned) [Example 134, 2-[1-[6-Methyl-2-(2-methylpyrazolo[1,5-a]pyridin-6-yl)-4-oxo-chromen-8-yl]ethylamino]benzoic acid] | 1000 to 5000 nM | < 500 nM
10 | Cc1cc(C(C)Nc2ccccc2C(=O)O)c2oc(-c3ccc4nn(C)cc4n3)c(C)c(=O)c2c1 (single isomer, unassigned) [Example 130, 2-[1-[3,6-Dimethyl-2-(2-methylpyrazolo[4,3-b]pyridin-5-yl)-4-oxo-chromen-8-yl]ethylamino]benzoic acid] | 500 to 1000 nM | < 500 nM
11 | Cc1cc(C(C)Nc2ccccc2C(=O)O)c2oc(-c3ccc4nc(C)cn4c3)c(C#N)c(=O)c2c1 (single isomer, unassigned) [Example 118, 2-[1-[3-Cyano-6-methyl-2-(2-methylimidazo[1,2-a]pyridin-6-yl)-4-oxo-chromen-8-yl]ethylamino]benzoic acid] | 1000 to 5000 nM | < 500 nM
12 | Cc1cc(C(C)Nc2ccccc2C(=O)O)c2oc(-c3ccc4nc(C)cn4c3)cc(=O)c2c1 (single isomer, unassigned) [Example 38, 2-[1-[6-Methyl-2-(2-methylimidazo[1,2-a]pyridin-6-yl)-4-oxo-chromen-8-yl]ethylamino]benzoic acid] | 1000 to 5000 nM | < 500 nM
13 | Cc1cc(C(C)Nc2ccccc2C(=O)O)c2oc(-c3nccn4cccc34)cc(=O)c2c1 (single isomer, unassigned) [Example 105, 2-[1-(6-Methyl-4-oxo-2-pyrrolo[1,2-a]pyrazin-1-yl-chromen-8-yl)ethylamino]benzoic acid] | 5000 to 10000 nM | < 500 nM
14 | Cc1cc(C(C)Nc2ccccc2C(=O)O)c2oc(-c3ccc4nc(C)cn4n3)cc(=O)c2c1 (single isomer, unassigned) [Example 69, 2-[1-[6-Methyl-2-(2-methylimidazo[1,2-b]pyridazin-6-yl)-4-oxo-chromen-8-yl]ethylamino]benzoic acid] | 1000 to 5000 nM | < 500 nM
15 | Cc1cc(C(C)Nc2ccccc2C(=O)O)c2oc(-c3nccc4cn(C)nc34)cc(=O)c2c1 (single isomer, unassigned) [Example 98, 2-[1-[6-Methyl-2-(2-methylpyrazolo[3,4-c]pyridin-7-yl)-4-oxo-chromen-8-yl]ethylamino]benzoic acid] | 5000 to 10000 nM | 5000 to 10000 nM
16 | Cc1cc(C(C)Nc2ccccc2C(=O)O)c2oc(-c3ccc4cncn4c3)cc(=O)c2c1 (single isomer, unassigned) [Example 79, 2-[1-(2-Imidazo[1,5-a]pyridin-6-yl-6-methyl-4-oxo-chromen-8-yl)ethylamino]benzoic acid] | 1000 to 5000 nM | < 500 nM
17 | CC(Nc1ccc(Cl)nc1C(=O)O)c1cc(C(F)(F)F)cc2c(=O)cc(-c3cc4ccccc4[nH]3)oc12 (single isomer, unassigned) [Example 100, 6-Chloro-3-[1-[2-(1H-indol-2-yl)-4-oxo-6-(trifluoromethyl)chromen-8-yl]ethylamino]pyridine-2-carboxylic acid] | > 10000 nM | < 500 nM
18 | Cc1cc(C(C)Nc2ccccc2C(=O)O)c2oc(-c3cnn4cccnc34)cc(=O)c2c1 (stereo not drawn) [Example 6, 2-[1-(6-Methyl-4-oxo-2-pyrazolo[1,5-a]pyrimidin-3-yl-chromen-8-yl)ethylamino]benzoic acid] | 1000 to 5000 nM | < 500 nM
19 | Cc1cc(C(C)Nc2ccc(C)nc2C(=O)O)c2oc(-c3cc4ccccc4[nH]3)cc(=O)c2c1 (stereo not drawn) [Example 99, 3-[1-[2-(1H-Indol-2-yl)-6-methyl-4-oxo-chromen-8-yl]ethylamino]-6-methyl-pyridine-2-carboxylic acid] | 1000 to 5000 nM | 1000 to 5000 nM
20 | Cc1cc(C(C)Nc2ccccc2C(=O)O)c2oc(-c3ccc4nncn4c3)cc(=O)c2c1 (single isomer, unassigned) [Example 76, 2-[1-[6-Methyl-4-oxo-2-([1,2,4]triazolo[4,3-a]pyridin-6-yl)chromen-8-yl]ethylamino]benzoic acid] | > 10000 nM | < 500 nM
21 | Cc1cc(C(C)Nc2ccccc2C(=O)O)c2oc(-c3cc4ccncc4o3)cc(=O)c2c1 (stereo not drawn) [Example 152, 2-[1-(2-Furo[2,3-c]pyridin-2-yl-6-methyl-4-oxo-chromen-8-yl)ethylamino]benzoic acid] | 1000 to 5000 nM | < 500 nM
22 | COc1ccc2nc(-c3cc(=O)c4cc(C)cc(C(C)Nc5ccccc5C(=O)O)c4o3)cn2c1 (single isomer, unassigned) [Example 2, 2-[1-[2-(6-Methoxyimidazo[1,2-a]pyridin-2-yl)-6-methyl-4-oxo-chromen-8-yl]ethylamino]benzoic acid] | 1000 to 5000 nM | 500 to 1000 nM
23 | Cc1cc(C(C)Nc2ccccc2C(=O)O)c2oc(-c3ccc4nccn4c3)cc(=O)c2c1 (single isomer, unassigned) [Example 73, 2-[1-(2-Imidazo[1,2-a]pyridin-6-yl-6-methyl-4-oxo-chromen-8-yl)ethylamino]benzoic acid] | 1000 to 5000 nM | < 500 nM
24 | Cc1cc(C(C)Nc2ccccc2C(=O)O)c2oc(-c3cccn4ccnc34)cc(=O)c2c1 (single isomer, unassigned) [Example 127, 2-[1-(2-Imidazo[1,2-a]pyridin-8-yl-6-methyl-4-oxo-chromen-8-yl)ethylamino]benzoic acid] | 5000 to 10000 nM | 500 to 1000 nM
25 | Cc1cc(C(C)Nc2ccccc2C(=O)O)c2oc(-c3ccn4c(-c5ncco5)c(C)nc4c3)cc(=O)c2c1 (single isomer, unassigned) [Example 133, 2-[1-[6-Methyl-2-(2-methyl-3-oxazol-2-yl-imidazo[1,2-a]pyridin-7-yl)-4-oxo-chromen-8-yl]ethylamino]benzoic acid] | > 10000 nM | > 10000 nM
26 | Cc1cc(C(C)Nc2ccccc2C(=O)O)c2oc(-c3ccc4cc[nH]c4c3)cc(=O)c2c1 (single isomer, unassigned) [Example 21, 2-[1-[2-(1H-Indol-6-yl)-6-methyl-4-oxo-chromen-8-yl]ethylamino]benzoic acid] | 500 to 1000 nM | < 500 nM
27 | Cc1cc(C(C)Nc2ccc(C)nc2C(=O)O)c2oc(-c3nn(C)c4ccccc34)cc(=O)c2c1 (single isomer, unassigned) [Example 176, 6-Methyl-3-[1-[6-methyl-2-(1-methylindazol-3-yl)-4-oxo-chromen-8-yl]ethylamino]pyridine-2-carboxylic acid] | > 10000 nM | < 500 nM
